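Interpolation was linear, between the two tested concentrations surrounding the appropriate level; five concentrations were tested over 48 hours in 96-well plates. GI50 is the concentration that inhibits growth by half. The concentration for full growth arrest is given as TGI.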
Legend:
Assay in all cases: NCI-60 cell line screen, 48 h
786-0 renal = test system: 786-0 renal
A498 renal = test system: A498 renal
A549 NSCLC = test system: A549 NSCLC
ACHN renal = test system: ACHN renal
BT-549 breast = test system: BT-549 breast
CAKI-1 renal = test system: CAKI-1 renal
CCRF-CEM leukemia = test system: CCRF-CEM leukemia
COLO 205 colon = test system: COLO 205 colon
DU-145 prostate = test system: DU-145 prostate
EKVX NSCLC = test system: EKVX NSCLC
HCC-2998 colon = test system: HCC-2998 colon
HCT-116 colon = test system: HCT-116 colon
HCT-15 colon = test system: HCT-15 colon
HL-60(TB) leukemia = test system: HL-60(TB) leukemia
HOP-62 NSCLC = test system: HOP-62 NSCLC
HS 578T breast = test system: HS 578T breast
HT29 colon = test system: HT29 colon
IGROV1 ovarian = test system: IGROV1 ovarian
K-562 leukemia = test system: K-562 leukemia
KM12 colon = test system: KM12 colon
LOX IMVI melanoma = test system: LOX IMVI melanoma
M14 melanoma = test system: M14 melanoma
MALME-3M melanoma = test system: MALME-3M melanoma
MCF7 breast = test system: MCF7 breast
MDA-MB-231 breast = test system: MDA-MB-231 breast
MDA-MB-435 = test system: MDA-MB-435
MOLT-4 leukemia = test system: MOLT-4 leukemia
NCI-H226 lung = test system: NCI-H226 lung
NCI-H23 lung = test system: NCI-H23 lung
NCI-H460 lung = test system: NCI-H460 lung
NCI-H522 lung = test system: NCI-H522 lung
NCI/ADR-RES ovarian = test system: NCI/ADR-RES ovarian
OVCAR-3 ovarian = test system: OVCAR-3 ovarian
OVCAR-4 ovarian = test system: OVCAR-4 ovarian
OVCAR-5 ovarian = test system: OVCAR-5 ovarian
OVCAR-8 ovarian = test system: OVCAR-8 ovarian
PC-3 prostate = test system: PC-3 prostate
RPMI-8226 leukemia = test system: RPMI-8226 leukemia
SF-268 CNS = test system: SF-268 CNS
SF-295 CNS = test system: SF-295 CNS
SF-539 CNS = test system: SF-539 CNS
SK-MEL-2 melanoma = test system: SK-MEL-2 melanoma
SK-MEL-28 melanoma = test system: SK-MEL-28 melanoma
SK-MEL-5 melanoma = test system: SK-MEL-5 melanoma
SK-OV-3 ovarian = test system: SK-OV-3 ovarian
SN12C renal = test system: SN12C renal
SNB-19 CNS = test system: SNB-19 CNS
SNB-75 CNS = test system: SNB-75 CNS
SR leukemia = test system: SR leukemia
SW-620 colon = test system: SW-620 colon
T-47D breast = test system: T-47D breast
TK-10 renal = test system: TK-10 renal
U251 CNS = test system: U251 CNS
UACC-257 melanoma = test system: UACC-257 melanoma
UACC-62 melanoma = test system: UACC-62 melanoma
UO-31 renal = test system: UO-31 renal

Cc1ccc(Cl)cc1Nc1nc(C(F)(F)F)ccc1C(=O)N1CCN(c2cccc(Cl)c2)CC1
GI50 (786-0 renal): > 100 µM | TGI (786-0 renal): > 100 µM | GI50 (A498 renal): 65.6 µM | TGI (A498 renal): > 100 µM | GI50 (A549 NSCLC): > 100 µM | TGI (A549 NSCLC): > 100 µM | GI50 (ACHN renal): > 100 µM | TGI (ACHN renal): > 100 µM | GI50 (BT-549 breast): > 100 µM | TGI (BT-549 breast): > 100 µM | GI50 (CAKI-1 renal): 26.4 µM | TGI (CAKI-1 renal): > 100 µM | GI50 (CCRF-CEM leukemia): > 100 µM | TGI (CCRF-CEM leukemia): > 100 µM | GI50 (COLO 205 colon): > 100 µM | TGI (COLO 205 colon): > 100 µM | GI50 (DU-145 prostate): > 100 µM | TGI (DU-145 prostate): > 100 µM | GI50 (EKVX NSCLC): 86.4 µM | TGI (EKVX NSCLC): > 100 µM | GI50 (HCC-2998 colon): 17.8 µM | TGI (HCC-2998 colon): > 100 µM | GI50 (HCT-116 colon): 37.9 µM | TGI (HCT-116 colon): > 100 µM | GI50 (HCT-15 colon): > 100 µM | TGI (HCT-15 colon): > 100 µM | GI50 (HL-60(TB) leukemia): 94.4 µM | TGI (HL-60(TB) leukemia): > 100 µM | GI50 (HOP-62 NSCLC): > 100 µM | TGI (HOP-62 NSCLC): > 100 µM | GI50 (HS 578T breast): 47.9 µM | TGI (HS 578T breast): > 100 µM | GI50 (HT29 colon): > 100 µM | TGI (HT29 colon): > 100 µM | GI50 (IGROV1 ovarian): 39.2 µM | TGI (IGROV1 ovarian): > 100 µM | GI50 (K-562 leukemia): > 100 µM | TGI (K-562 leukemia): > 100 µM | GI50 (KM12 colon): > 100 µM | TGI (KM12 colon): > 100 µM | GI50 (LOX IMVI melanoma): > 100 µM | TGI (LOX IMVI melanoma): > 100 µM | GI50 (M14 melanoma): > 100 µM | TGI (M14 melanoma): > 100 µM | GI50 (MALME-3M melanoma): > 100 µM | TGI (MALME-3M melanoma): > 100 µM | GI50 (MCF7 breast): 47.9 µM | TGI (MCF7 breast): > 100 µM | GI50 (MDA-MB-231 breast): 30.5 µM | TGI (MDA-MB-231 breast): > 100 µM | GI50 (MDA-MB-435): > 100 µM | TGI (MDA-MB-435): > 100 µM | TGI (MOLT-4 leukemia): > 100 µM | GI50 (NCI-H226 lung): > 100 µM | TGI (NCI-H226 lung): > 100 µM | GI50 (NCI-H23 lung): > 100 µM | TGI (NCI-H23 lung): > 100 µM | GI50 (NCI-H460 lung): 90.1 µM | TGI (NCI-H460 lung): > 100 µM | GI50 (NCI-H522 lung): 89.7 µM | TGI (NCI-H522 lung): > 100 µM | GI50 (NCI/ADR-RES ovarian): > 100 µM | TGI (NCI/ADR-RES ovarian): > 100 µM | GI50 (OVCAR-3 ovarian): 8.27 µM | TGI (OVCAR-3 ovarian): > 100 µM | GI50 (OVCAR-4 ovarian): > 100 µM | TGI (OVCAR-4 ovarian): > 100 µM | GI50 (OVCAR-5 ovarian): > 100 µM | TGI (OVCAR-5 ovarian): > 100 µM | GI50 (OVCAR-8 ovarian): > 100 µM | TGI (OVCAR-8 ovarian): > 100 µM | GI50 (PC-3 prostate): 21.7 µM | TGI (PC-3 prostate): > 100 µM | GI50 (RPMI-8226 leukemia): 33.2 µM | TGI (RPMI-8226 leukemia): > 100 µM | GI50 (SF-268 CNS): > 100 µM | TGI (SF-268 CNS): > 100 µM | GI50 (SF-295 CNS): > 100 µM | TGI (SF-295 CNS): > 100 µM | GI50 (SF-539 CNS): > 100 µM | TGI (SF-539 CNS): > 100 µM | GI50 (SK-MEL-2 melanoma): > 100 µM | TGI (SK-MEL-2 melanoma): > 100 µM | GI50 (SK-MEL-28 melanoma): > 100 µM | TGI (SK-MEL-28 melanoma): > 100 µM | GI50 (SK-MEL-5 melanoma): > 100 µM | TGI (SK-MEL-5 melanoma): > 100 µM | GI50 (SK-OV-3 ovarian): > 100 µM | TGI (SK-OV-3 ovarian): > 100 µM | GI50 (SN12C renal): > 100 µM | TGI (SN12C renal): > 100 µM | GI50 (SNB-19 CNS): > 100 µM | TGI (SNB-19 CNS): > 100 µM | GI50 (SNB-75 CNS): 73.8 µM | TGI (SNB-75 CNS): > 100 µM | GI50 (SR leukemia): 3.06 µM | TGI (SR leukemia): > 100 µM | GI50 (SW-620 colon): > 100 µM | TGI (SW-620 colon): > 100 µM | GI50 (T-47D breast): 37.6 µM | TGI (T-47D breast): > 100 µM | GI50 (TK-10 renal): > 100 µM | TGI (TK-10 renal): > 100 µM | GI50 (U251 CNS): > 100 µM | TGI (U251 CNS): > 100 µM | GI50 (UACC-257 melanoma): > 100 µM | TGI (UACC-257 melanoma): > 100 µM | GI50 (UACC-62 melanoma): 69.4 µM | TGI (UACC-62 melanoma): > 100 µM | GI50 (UO-31 renal): 24.8 µM | TGI (UO-31 renal): > 100 µM

Reference: PubChem BioAssay (NCI)
